Laboratory results as given in ChEMBL document CHEMBL5727242, “N-Methylbenzimidazoles as mIDH1 inhibitors” (2019).

Experiment: Biological Assay: Mutant IDH1 R132H Biochemical Assay mIDH1 catalyzes the NADPH-dependent reduction of alpha-ketoglutarate (a-KG) to (2R)-2-hydroxyglutarate (2-HG). NADPH consumption was measured by luminescent readout.The biochemical reactions were performed at 32° C. in 384-well plates using a reaction volume of 41 μL and the following assay buffer conditions: 50 mM Tris pH 7.5, 100 mM NaCl, 20 mM MgCl2, 0.05% BSA, 0.01% Brij, 1 μM NADPH, and 250 μM α-KG. The IDH1 R132H enzyme was used in a final concentration of 1.5 nM. Test compounds were used in a concentration range between 0.002 and 10 μM. The final DMSO concentration was 2.4%.The reaction was incubated for 30 minutes, then 40 μL of detection mix (0.75 μg/ml Luciferase, 0.02 U/ml Oxidoreductase, 4 μg/mL FMN, 2 μL/ml decanal/ethanol, 50 mM Tris pH 7.5, 0.5% Glycerin, 0.01% Tween-20, 0.05% BSA) was added. Luminescence was measured on a luminescent reader (10 seconds measuring time, 1 second integration period, 30% sensitivity). The decrease in luminescence is proportional to mIDH1 activity. IC50 values are determined by interpolation from plots of relative luminescence versus inhibitor concentration.

Structure (SMILES): COC(=O)c1ccc2c(c1)nc(Nc1ccc(OC(F)(F)F)cc1)n2[C@@H]1C[C@H](C)CC[C@H]1C(C)C
- IC50: 38 nM
